Drawing on publication PMC6792352, “Limited Chemical Structural Diversity Found to Modulate Thyroid Hormone Receptor in the Tox21 Chemical Library” (Environmental Health Perspectives, 2019), this text covers CC50 for 69 compounds.

Structures can show the parent of a compound that is named as a salt. No end group written: not given here.

This data set is described as follows: in vitro. Conditions: rat, gh3-tre-luc cells.

The CC50 is the concentration at which the toxic effect on the cells reaches its halfway point. Low values mean greater toxicity to the cells, high ones lower toxicity to the cells. `Fc1ccccc1` [Fluorobenzene]: the CC50 at 24 h (AC50 (uM) modified / 1000) is over 90 µM.
Compound `CC1(C)S[C@@H]2[C@H](NC(=O)C(C(=O)Oc3ccc4c(c3)CCC4)c3ccccc3)C(=O)N2[C@H]1C(=O)O` (some centres unmarked) [Carbenicillin indanyl] yielded a CC50 at 24 h (AC50 (uM) modified / 1000) of over 50 µM.
Still for that read-out and setting: the same measure for `CCN(Cc1cccc(S(=O)(=O)O)c1)c1ccc(C(=C2C=CC(=[N+](CC)Cc3cccc(S(=O)(=O)O)c3)C=C2)c2ccc(O)cc2S(=O)(=O)[O-])cc1` [FD&C Green No. 3]: 41.3 µM; for `NC(=O)NO` [Hydroxyurea]: over 90 µM.
The same measure, in the same setting: in the case of `CCC(Oc1ccccc1)C(=O)N[C@@H]1C(=O)N2[C@@H]1SC(C)(C)[C@@H]2C(=O)O` (some centres unmarked) [Propicillin] it was over 50 µM.
Still for that read-out and setting: in the case of `CC(=O)OC(C)=O` [Acetic anhydride] it was over 90 µM.
With `CN1CCN(C(c2ccccc2)c2ccc(Cl)cc2)CC1` (centres unmarked) [Chlorcyclizine hydrochloride], half-maximal cytotoxicity (AC50 (uM) modified / 1000) (CC50 at 24 h) was put at 4.39 µM.
On the same count and under the same terms, in the case of `CCN1CCN(c2cc(-c3ccc(F)cc3)c3c(n2)CCCCCC3)CC1` [Blonanserin] it was 20.1 µM.
Same read-out and setting: the same measure for `C=CC(=O)OCC` [Ethyl acrylate]: over 90 µM; for `CC(C)=CC(=O)C=C(C)C` [Phorone]: over 90 µM.
Still for that read-out and setting: in the case of `NCCOCCOCCN` [2,2'-[Ethane-1,2-diylbis(oxy)]diethanamine] it was over 90 µM; in that of `NCCN1CCNC1=O` [1-(2-Aminoethyl)imidazolidin-2-one], over 90 µM; in that of `CC(C)NCC(O)c1ccccc1Cl` (centres unmarked) [Clorprenaline hydrochloride], over 50 µM.
`C[C@@H]1C[C@H]2[C@@H]3C[C@H](F)C4=CC(=O)C=C[C@]4(C)[C@@]3(Cl)[C@@H](O)C[C@]2(C)[C@H]1C(=O)COC(=O)C(C)(C)C` [Clocortolone pivalate] returned a CC50 at 24 h (AC50 (uM) modified / 1000) of over 50 µM.
Turning to `c1cc(C(c2ccc(OCC3CO3)cc2)c2ccc(OCC3CO3)cc2)ccc1OCC1CO1` (centres unmarked) [2,2',2''-[Methanetriyltris(benzene-4,1-diyloxymethanediyl)]trioxirane], it took 19.4 µM to reach half-maximal cytotoxicity (AC50 (uM) modified / 1000) (CC50 at 24 h).
Same read-out and setting: the same measure for `NCCNCCO` [N-(Hydroxyethyl)ethylenediamine]: over 90 µM; for `N#Cc1cccnc1` [3-Pyridinecarbonitrile]: over 90 µM.
Still for that read-out and setting: the same measure for `CCC(C)(C)CC` [Pentane,3,3-dimethyl-]: over 100 µM; for `CN1CCN(C2=Nc3cc(F)ccc3Cc3ccccc32)CC1` [Fluperlapine]: 11.9 µM.
For the setting “AC50 (uM) modified / 1000”, `C/C=C1\NC(=O)[C@H]2CSSCC/C=C/[C@H](CC(=O)N[C@H](C(C)C)C(=O)N2)OC(=O)[C@H](C(C)C)NC1=O` [Romidepsin] displayed a CC50 at 24 h of 0.0269 µM.
`CCOC(=O)c1ccccc1N` [Ethyl anthranilate] returned a CC50 at 24 h (AC50 (uM) modified / 1000, Tox21_110001=Tox21_202019, viability, 1 nM T3 present, 24 h) of over 90 µM.
`CCCC1CCC(=O)CC1` [4-Propylcyclohexanone] registered a CC50 at 24 h (AC50 (uM) modified / 1000) of over 90 µM.
Same read-out and setting: the same measure for `CC(C)c1ccc(C=O)cc1` [4-Isopropylbenzaldehyde]: over 90 µM; for `CCCCCCOC(=O)CCCCC(=O)OCCCCCC` [Dihexyl hexanedioate]: over 90 µM; for `NP(N)(=O)NC(=O)c1ccc(F)cc1` [Flurofamide]: over 50 µM.
The same measure, in the same setting: in the case of `NS(=O)(=O)c1ccc(C(=O)O)cc1` [Carzenide] it was over 50 µM.
Same read-out and setting: in the case of `CCCCCCCC/C=C\CCCCCCCC(=O)O` [Oleic acid] it was over 90 µM; in that of `C[C@@H](O)[C@@H]1NC(=O)[C@H](CCCCN)NC(=O)[C@@H](Cc2c[nH]c3ccccc23)NC(=O)[C@H](Cc2ccccc2)NC(=O)[C@@H](NC(=O)[C@H](N)Cc2ccccc2)CSSC[C@@H](C(=O)N[C@H](CO)[C@@H](C)O)NC1=O` [Octreotide], over 50 µM.
Under “AC50 (uM) modified / 1000”, `CCO` [Ethanol] came in with a CC50 at 24 h of over 100 µM.
As for `CC(C)(C)c1cc([N+](=O)[O-])cc([N+](=O)[O-])c1O` [Dinoterb], for the setting “AC50 (uM) modified / 1000, Tox21_110001=Tox21_300743, viability, 1 nM T3 present, 24 h”, the CC50 at 24 h stood at 8.14 µM.
The compound `Nc1ccc(C(=O)Oc2ccccc2)c(O)c1` [Phenyl 4-aminosalicylate] gave a 50% cytotoxic concentration (CC50) at 24 h (AC50 (uM) modified / 1000) of over 50 µM.
In the case of `CCCCC1CCCCC(=O)O1` (centres unmarked) [epsilon-Decalactone], the CC50 at 24 h (AC50 (uM) modified / 1000) is over 90 µM.
Regarding `C[N+](=O)[O-]` [Nitromethane], the CC50 at 24 h (AC50 (uM) modified / 1000, Tox21_110001=Tox21_200822, viability, 1 nM T3 present, 24 h) was over 90 µM.
In turn, `C=CCOc1c(Br)cc(Br)cc1Br` [1,3,5-Tribromo-2-(prop-2-en-1-yloxy)benzene] showed a CC50 at 24 h (AC50 (uM) modified / 1000) of over 90 µM.
Same read-out and setting: the same measure for `CNC[C@@H]1CC[C@@H](N)[C@@H](O[C@H]2[C@H](O)[C@@H](O[C@H]3OC[C@](C)(O)[C@H](NC)[C@H]3O)[C@H](N)C[C@@H]2N)O1` [Micronomicin sulfate]: over 50 µM; for `Oc1ccccc1/C=N/Cc1ccccc1` [Norletimol]: over 50 µM; for `C=CC(=O)OCC(CC)CCCC` (centres unmarked) [2-Ethylhexyl acrylate]: over 90 µM.
Take `CC(C)(O)C#N` [2-Hydroxy-2-methylpropanenitrile]: the CC50 at 24 h was over 100 µM (AC50 (uM) modified / 1000, Tox21_110001=Tox21_201490, viability, 1 nM T3 present, 24 h) and over 90 µM (AC50 (uM) modified / 1000, Tox21_110001=Tox21_303256, viability, 1 nM T3 present, 24 h).
`COc1cc([C@H]2Oc3cc([C@H]4Oc5cc(O)cc(O)c5C(=O)[C@@H]4O)ccc3O[C@@H]2CO)ccc1O` [Silybin] registered a CC50 at 24 h (AC50 (uM) modified / 1000) of over 90 µM.
On the same count and under the same terms, the same measure for `CCCCCCCCCCCCCCCCC` [Heptadecane]: over 90 µM.
In the case of `O=C(O)C(Br)Br` [Dibromoacetic acid], under “AC50 (uM) modified / 1000, Tox21_110001=Tox21_202297, viability, 1 nM T3 present, 24 h”, the CC50 at 24 h is over 90 µM.
Consider `CCCCCOC(C)=O` [Pentyl acetate], for which the CC50 at 24 h (AC50 (uM) modified / 1000) is over 90 µM.
On the same count and under the same terms, in the case of RKDVY [Thymopentin] it was over 50 µM.
`CCCCOC(=O)CCC(=O)OCCCC` [Dibutyl butanedioate] returned a CC50 at 24 h (AC50 (uM) modified / 1000, Tox21_110001=Tox21_301514, viability, 1 nM T3 present, 24 h) of over 90 µM.
In the case of `CC(=O)Nc1ccc(OC(C)=O)cc1` [Diacetamate], the CC50 at 24 h (AC50 (uM) modified / 1000) was over 50 µM.
On the same count and under the same terms, in the case of `CCCCC[C@@H](O)[C@H]1C(=O)O[C@H](C)[C@@H](O)/C=C/C=C/C=C/C=C/C=C(\C)[C@@H](O)[C@H](O)[C@H](O)C[C@H](O)C[C@H](O)C[C@H](O)C[C@H](O)C[C@@H]1O` [Pentamycin] it was over 50 µM; in that of `CC(C)(Oc1ccc(C2CCCc3ccccc32)cc1)C(=O)O` (centres unmarked) [Nafenopin], over 50 µM.
Same read-out and setting: in the case of `O=C(O)c1cc2ccccc2nc1C(=O)O` [2,3-Quinolinedicarboxylic acid] it was over 90 µM; in that of `CC1=NS(=O)(=O)c2cc(Cl)ccc2N1` [Diazoxide], over 50 µM; in that of `C[C@@H]1[C@H](O)[C@@H](C)/C=C/C=C/CC/C=C/C=C/C=C/C=C/[C@H](O[C@@H]2O[C@H](C)[C@@H](O)[C@H](N)[C@@H]2O)C[C@@H]2O[C@](O)(C[C@@H](O)[C@H](O)CC[C@@H](O)C[C@@H](O)C[C@@H](O)CC(=O)O[C@H]1C)C[C@H](O)[C@H]2C(=O)O` [Nystatin], over 50 µM.
The same measure, in the same setting: the same measure for `CCCN1CCC[C@H](c2cccc(O)c2)C1` [R-3-PPP hydrochloride]: over 50 µM; for `COC(=O)Nc1ccc(Cl)c(Cl)c1` [Swep]: over 90 µM.
In the case of `CCCCC[C@H](O)/C=C/[C@@H]1[C@H]2C/C(=C/CCCC(=O)O)O[C@H]2C[C@H]1O` [Epoprostenol sodium], the CC50 at 24 h (AC50 (uM) modified / 1000) is over 50 µM.
The same measure, in the same setting: in the case of `CN(C)c1ccncc1` [N,N-dimethylpyridin-4-amine] it was over 90 µM; in that of `Cc1ccc(N)cc1C` [3,4-Dimethylaniline], over 90 µM.
Still for that read-out and setting: the same measure for `Cc1ncc2n1-c1ccc(Cl)cc1C(c1ccccc1F)=NC2` [Midazolam hydrochloride]: over 50 µM; for `CN1C[C@H](CNC(=O)OCc2ccccc2)C[C@@H]2c3cccc4c3c(cn4C)C[C@H]21` [Metergoline]: 8.07 µM; for `CC(=O)Nc1ccc2c(c1)Cc1cc(NC(C)=O)ccc1-2` [2,7-Acetylaminofluorene]: over 90 µM.
On the same count and under the same terms, the same measure for `c1ccc(CCc2ccccc2)cc1` [Bibenzyl]: over 90 µM; for `CCCCCCCO` [1-Heptanol]: over 90 µM; for `C=CC(=O)OCCCCCCCCCC` [Decyl prop-2-enoate]: over 90 µM.
Turning to `O=C1N(c2ccccc2)c2ccccc2C1(Cc1ccncc1)Cc1ccncc1` [Linopirdine], the CC50 at 24 h (AC50 (uM) modified / 1000) is over 50 µM.
Same read-out and setting: the same measure for `O=C(Cl)c1c(Cl)c(Cl)c(C(=O)Cl)c(Cl)c1Cl` [2,3,5,6-Tetrachlorobenzene-1,4-dicarbonyl dichloride]: over 90 µM; for `CCOC(=O)C1=C(C)NC(C)=C(C(=O)OCC)C1c1ccccc1/C=C/C(=O)OC(C)(C)C` [Lacidipine]: 11.2 µM; for `CCC(CO)(CO)COCC(CC)(CO)CO` [2,2'-(Oxydimethanediyl)bis(2-ethylpropane-1,3-diol)]: over 90 µM.
`CNC(=O)Oc1cccc2c1OC(C)(C)C2` [Carbofuran] showed a CC50 at 24 h (AC50 (uM) modified / 1000) of over 90 µM.
In turn, `CC(=O)O[C@H]1CC[C@@]2(C)C(=CC[C@@H]3[C@@H]2CC[C@]2(C)C(=O)CC[C@@H]32)C1` [Dehydroepiandrosterone acetate] showed a CC50 at 24 h (AC50 (uM) modified / 1000, Tox21_110001=Tox21_110485, viability, 1 nM T3 present, 24 h) of over 20 µM and a CC50 at 24 h (AC50 (uM) modified / 1000, Tox21_110001=Tox21_200963, viability, 1 nM T3 present, 24 h) of over 90 µM.
For the compound `CSc1nc2cc(Cl)c(Oc3cccc(Cl)c3Cl)cc2[nH]1` [Triclabendazole], the half-maximal cytotoxic concentration (CC50) at 24 h (AC50 (uM) modified / 1000) stood at 28.5 µM.
The compound `COC1=C(OC)C(=O)C(CCCCCCCCCCO)=C(C)C1=O` [Idebenone] had a CC50 at 24 h (AC50 (uM) modified / 1000) of 35.2 µM.
